These results are taken from patent publication US20060275329A1 (priority 2002, published 2006).

Data set [1] deals with recombinant TcOYE. Format: biochemical, Trypanosoma cruzi. Particulars: pH 7.
Data set [2] relates to crude extract of Trypanosoma cruzi (PG synthesizing system). The data set is described as follows: Prostaglandin production from arachidonic acid by crude extract of Trypanosoma cruzi. The data set is classed as biochemical. How it is done: The vegetative form (epimastigote) of Trypanosoma cruzi YNIH strain in the insect body (obtained from the National Institute of Infectious Diseases (1-23-1, Toyama, Shinjuku-ku, Tokyo)) was incubated by the conventional method (Nozaki T. et al., J. Biol. Chem. 276: 6516-6523, 2001) using synthetic culture medium. The cultured protozoa was destroyed by hyposmotic treatment and allowed to react with arachidonic acid, and the PGs produced were extracted with an organic solvent and separated/purified by HPLC.

For data set [3], the system named is TcOYE. In words: Electron spin resonance spectrum of the reaction product of TcOYE (radical generation). The note with it: JEOL X-band spectrometer. Format: biochemical, Trypanosoma cruzi. How it is done: Generation of radicals as a result of one-electron reduction is determined as follows. A hundred microliter of 5 mM tris-HCl buffer (pH 7.0) containing TcOYE and a substrate candidate is displaced with argon gas for 5 minutes to make an anaerobic environment. Then, 10 mM NADPH or NADH is added to the reaction mixture and allowed to react at 25° C. or 37° C. for 3 minutes under anaerobic condition. Part of the reaction mixture is analyzed with an electron spin resonance spectrometer (JEOL X-band spectrometer) to determine the generation of radicals. The measurement conditions and analytical method are described in the paper below. It is believed that the radicals produced react with oxygen to generate superoxide anion radicals (Moreno S. N. J. et al., J. Biol. Chem. 259: 6298-6305, 1984), which kill Trypanosoma cruzi.
The semiquinone radicals reacted with oxygen and produced superoxide anion radicals, which kill the protozoa (see FIG. 8).

Data set [4] relates to TcOYE. In words: Inhibition of the PGH2-F2α reductase activity of TcOYE. Particulars: FIG. 9. Format: biochemical, Trypanosoma cruzi. How it is done: An example of the reaction is as follows. For reaction under aerobic condition, 1 μl of 500 μM [1-14C]PGH2 solution (2.04 Gbq/mmol; acetone, DMSO or dimethylether diethylene glycol solution) is added to 100 μl of 100 mM phosphate buffer (pH 7.0) containing a NADPH production system (100 μM NADP, 100 μM glucose-6-phosphate, 1 unit of glucose-6-phosphate dehydrogenase), TcOYE and an inhibitor, and is allowed to react at 37° C. for two minutes. For reaction under anaerobic condition, after bubbling the reaction mixture with argon gas for five minutes, 100 μM NADPH or NADH and 1 μl PGH2 solution are added, and the mixture is allowed to react in argon gas at 37° C. for two minutes.
250 μl of a stop solution (diethyl ether:methanol:2M citric acid (30:4:1 mixed solution)) at −20° C. and an excess amount of anhydrous sodium sulfate are added to stop the reaction, and the remaining substrate ([1-14C]PGH2) and the enzymatic reaction product ([1-14C]PGF2α) are extracted in ether at the same time. Part (about 50 μl) of the ether layer is applied onto a silica gel thin layer (Merck & Co.) in a low-temperature room, and thin-layer chromatography (eluent:diethyl ether:methanol:acetic acid (90:2:1 mixed solution)) is performed in a refrigerated room at −20° C. After development, autoradiography of the thin layer plate is performed using the image analyzer FL2000 (Fuji Photo Film), and the substrate to product ratio is calculated to determine enzymatic activity.
The enzymatic reaction described above is conducted in the presence or absence of an inhibitor and a decrease in the reaction rate due to the inhibitor is examined to determine whether or not the reduction is inhibited. Because it is very likely that Trypanosoma cruzi uses prostaglandin to sustain parasitism in host cells, an inhibitor of TcOYE may be used to inhibit Trypanosoma cruzi parasitism in host cells.
Naphtoquinone compounds and nitro heterocyclic compounds that are reduced by TcOYE inhibit the PGH2-F2α reducing activity of TcOYE in a dose-dependent manner.

The subject of data set [5] is CC1(C)CCC2=C(O1)c1ccccc1C(=O)C2=O. The data set is described as follows: purified protein, by the assay type. Particulars: other: cofactor NADH (500 μM), argon-bubbled 0.1 M phosphate buffer pH 7.0, decrease in absorption at 340 nm.
In data set [6] the test system is CC1=CC(=O)c2ccccc2C1=O. The data set is described as follows: purified protein, by the assay type. The note with it: other: cofactor NADPH (500 μM), argon-bubbled 0.1 M phosphate buffer pH 7.0, decrease in absorption at 340 nm.
In data set [7] the test system is CC1CS(=O)(=O)CCN1/N=C/c1ccc([N+](=O)[O-])o1. In words: purified protein, by the assay type. The note with it: other: cofactor NADPH (500 μM), argon-bubbled 0.1 M phosphate buffer pH 7.0, decrease in absorption at 340 nm.
In data set [8] the test system is C[n+]1c2ccccc2nc2ccccc21. The data set is described as follows: purified protein, by the assay type. Particulars: other: cofactor NADPH (500 μM), argon-bubbled 0.1 M phosphate buffer pH 7.0, decrease in absorption at 340 nm.
The subject of data set [9] is O=[N+]([O-])c1cc[n+]([O-])c2ccccc12. In words: purified protein, by the assay type. The note with it: other: cofactor NADPH (500 μM), argon-bubbled 0.1 M phosphate buffer pH 7.0, decrease in absorption at 340 nm.
Data set [10] deals with [H][C@]12C[C@]([H])(OO1)[C@H](C/C=C\CCCC(=O)O)[C@H]2/C=C/[C@@H](O)CCCCC. In words: purified protein, by the assay type. The note with it: other: cofactor NADPH (500 μM), argon-bubbled 0.1 M phosphate buffer pH 7.0, decrease in absorption at 340 nm.

Regarding `Clc1ccc(COC(Cn2ccnc2)c2ccc(Cl)cc2Cl)cc1` (stereo not shown) [econazole], in data set [1], the “Reduction of the compound by TcOYE (substrate specificity)” value (from here on “Reduction of the compound by TcOYE”) is on record as “reduces”.
Take `COc1ccc2c(c1)c(CC(=O)O)c(C)n2C(=O)c1ccc(Cl)cc1` [indomethacin]: in data set [2] (42 μM indomethacin), the “Production of PGs (PGD2, PGE2, PGF2) by crude extract” value is on record as “unaffected”.
For `O=C(Cn1ccnc1[N+](=O)[O-])NCc1ccccc1` [benznidazole], in data set [1], the “Reduction of the compound by TcOYE” value is listed as “did not reduce”.
Turning to “2β,6α-dimethyl-8α-(2-methyl-1-oxo-butoxy)-mevinic acid lactone [mevinolin]”, in data set [1], the “Reduction of the compound by TcOYE” value is given as “reduces”. Besides, the “Type of reduction and radical production (ESR)” value in [3] was “underwent two-electron reduction and did not produce radicals”.
For the compound `CC(=O)Oc1ccccc1C(=O)O` [Aspirin], in [2] (3 μM Aspirin), the “Production of PGs (PGD2, PGE2, PGF2) by crude extract” value is recorded as “unaffected”.
For `CC1(C)CCC2=C(O1)c1ccccc1C(=O)C2=O` [β-lapachone], in [1], the “Reduction of the compound by TcOYE” value is listed as “reduces”. In addition, the “Type of reduction and radical production (ESR)” value in [3] is “underwent one-electron reduction and produced semiquinone radicals”. Besides, the “Inhibition of the PGH2-F2α reducing activity of TcOYE” value in data set [4] is given as “weak”.
Consider `CC1=CC(=O)c2ccccc2C1=O` [menadion], for which the “Reduction of the compound by TcOYE” value in [1] is recorded as “reduces”. The “Type of reduction and radical production (ESR)” value in [3] was “underwent one-electron reduction and produced semiquinone radicals”. Besides, the “Inhibition of the PGH2-F2α reducing activity of TcOYE” value in data set [4] is given as “weak”.
Consider `C[n+]1c2ccccc2nc2ccccc21` [phenazine methosulfate, 5-methyl-phenaziummethylsulfate], for which the “Reduction of the compound by TcOYE” value in data set [1] was “reduces”.
Take `O=[N+]([O-])c1cc[n+]([O-])c2ccccc12` [4-nitroquinoline-N-oxide]: the “Reduction of the compound by TcOYE” value in data set [1] is on record as “reduces”. For the same compound, the “Type of reduction and radical production (ESR)” value in data set [3] was “underwent two-electron reduction and did not produce radicals”. Besides, the “Inhibition of the PGH2-F2α reducing activity of TcOYE” value in data set [4] was “weak”.
For the compound `CC/C=C\C[C@@H]1C(=O)C=C[C@@H]1CCCCCCCC(=O)O` [12-oxo-phytodienoic acid, 4-oxo-5β-(2Z-pentenyl)-2-cyclopentene-1β-octanoic acid], the “Reduction of the compound by TcOYE” value in data set [1] is “reduces”.
As to `CC1CS(=O)(=O)CCN1/N=C/c1ccc([N+](=O)[O-])o1` (stereo not shown) [nifurtimox], the “Reduction of the compound by TcOYE” value in [1] is on record as “reduces”. For the same compound, the “Type of reduction and radical production (ESR)” value in [3] is “underwent two-electron reduction and did not produce radicals”. Besides, the “Inhibition of the PGH2-F2α reducing activity of TcOYE” value in data set [4] was “inhibits the activity most strongly”.
For the compound “recombinant TcOYE (Trypanosoma cruzi old yellow enzyme, PGH2-F2α reductase, flavoprotein, SEQ ID NO: 2, 379 amino acids; expressed in E. coli BL21 from pGEX-4T-1 as fusion with glutathione transferase, recovered by thrombin treatment) (Trypanosoma cruzi)”, the Km was 0.17 µM in data set [5]; 0.82 µM in data set [6]; 19.0 µM in [7]; 10.4 µM in data set [8]; 9.5 µM in [9]; 5.0 µM in data set [10].
For `CCCCC/C=C\C=C\C(=O)CCCCCCCC(=O)O` [9-oxo-10E,12Z-octadecadienoic acid], the “Reduction of the compound by TcOYE” value in data set [1] is recorded as “reduces”.
For `OO` [hydrogen peroxide], the “Reduction of the compound by TcOYE” value in data set [1] was “reduced”.
